Patent publication US20050250742A1 (Pfizer Inc., priority 2004, published 2005)

Target: T1, PIN1-CD (catalytic peptidyl-prolyl isomerase domain, devoid of the PIN1 WW domain) (Homo sapiens, UniProt Q13526)
T1 construct: PIN1 peptide containing the catalytic peptidyl-prolyl isomerase domain but devoid of the PIN1 WW domain
Test: Pin1 peptidyl-prolyl isomerase assay (protease-coupled, spectrophotometric)
Format: biochemical
Settings: catalytic PPIase domain without WW domain; 15° C., pH 7.5, 100 μM Suc-AEPF-pNA
Source text: PIN1 is a phosphorylation dependent peptidyl-prolyl isomerase. The PIN1 assay is a spectrophotometric assay based on the coupled chymotrypsin or subtilisin catalyzed, cis-trans conformation dependent cleavage of a para-nitroanaline containing peptide substrate. […] Cleavage of the isomerized peptide releases para-nitroanaline, which can be monitored by an increase in absorbance at 390 nm. The PIN1 peptide substrate, succinyl-[…]-proline-phenylalanine-paranitroaniline (Suc-AEPF-pNA) (Bachem), is kept in a predominantly cis conformation with an anhydrous TFE/LiCl solvent mixture.
Upon dilution into an aqueous assay mixture containing PIN1, the peptide substrate undergoes PIN1 catalyzed isomerization to the trans conformation. […] To minimize the spontaneous isomerization of the peptide substrate, reactions are performed at 15° C. A typical reaction contains 25 mM MOPS pH 7.5, 0.5 mM TCEP, 2% DMSO, 5 μl of a 25 mg/ml solution of subtilisin Carlsberg, 50 nM PIN1-PPiase, and 100 μM Suc-AEPF-pNA peptide substrate. Reactions are cooled to 15° C. and initiated with the addition of Suc-AEPF-pNA. The absorbance at 390 nm is monitored continuously until all substrate has been converted to the cleaved product. […] The rate constant k is linearly proportional to the concentration of active enzyme present in the assay mixture once the rate constant for the spontaneous isomerization is subtracted. […] Therefore, during inhibition experiments, the IC50, for non-tight binding inhibitors, is essentially the inhibition constant Ki.
(§1) In Table 1, the Ki data reported under the PIN1—CD heading corresponds to testing with PIN1 peptide containing the catalytic peptidyl-prolyl isomerase domain but devoid of the PIN1 WW domain. Similarly, the dissociation constant (Kd) data under PIN1-CD refers to testing with a peptide containing the catalytic PIN1 domain but devoid of the PIN1 WW domain.

T1 sequence (Q13526 52-163 limits assumed): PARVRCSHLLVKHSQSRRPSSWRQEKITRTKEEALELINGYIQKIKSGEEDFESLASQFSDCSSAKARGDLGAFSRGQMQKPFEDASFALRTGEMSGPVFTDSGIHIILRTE

Compound	Ki
O=C(N[C@@H](COP(=O)(O)O)CC1CCCCC1)c1ccc2ccccc2c1 [Example 33, Phosphoric acid mono-{(R)-3-cyclohexyl-2-[(1-naphthalen-2-yl-methanoyl)-amino]-propyl}ester]	< 10000 nM
CN(C)c1cccc2c(S(=O)(=O)N[C@@H](COP(=O)(Oc3ccccc3)Oc3ccccc3)Cc3cccc(F)c3)cccc12 [Example 86, Phosphoric acid (R)-2-(5-dimethylamino-naphthalene-1-sulfonylamino)-3-(3-fluoro-phenyl)-propyl ester diphenyl ester]	< 100000 nM
CC(C)(C)C(=O)N[C@@H](COP(=O)(O)O)Cc1ccccc1 [Example 25-16, Phosphoric acid mono-[(R)-2-(2,2-dimethyl-propanoylamino)-3-phenyl-propyl]ester]	< 1000 nM
CC(=O)OCOP(=O)(OCOC(C)=O)OC[C@@H](Cc1cccc(F)c1)NC(=O)c1cc2ccccc2s1 [Example 85, Acetic acid acetoxymethoxy-[(R)-2-[(1-benzo[b]thiophen-2-yl-methanoyl)-amino]-3-(3-fluoro-phenyl)-propoxy]-phosphoryloxymethyl ester]	< 100000 nM
O=C(N[C@@H](CCP(=O)(O)O)Cc1cccc(F)c1)c1cc2ccccc2s1 [Example 71, ([(R)-3-[(Benzo[b]thiophene-2-carbonyl)-amino]4-(3-fluoro-phenyl)-butyl]-phosphonic acid)]	< 1000 nM

The next lines start with the values.

Ki	Compound
< 1000 nM	O=C(OC(CCCc1ccccc1)CCCc1ccccc1)[C@@H]1CCCCN1C(=O)N[C@@H](COP(=O)(O)O)Cc1cccc(F)c1 [Example 79, (S)-1-[(R)-2-(3-Fluoro-phenyl)-1-phosphonooxymethyl-ethylcarbamoy]-piperidine-2-carboxylic acid 4-phenyl-1-(3-phenyl-propyl)-butyl ester]
< 10000 nM	CC(=O)N[C@@H](COP(=O)(O)O)Cc1ccccc1 [Example 25-40, Phosphoric acid mono-(2-acetylamino-3-phenyl-propyl)ester]
< 10000 nM	CN(C)c1cccc2c(S(=O)(=O)N[C@@H](COP(=O)(O)O)Cc3cccc(F)c3)cccc12 [Example 42, Phosphoric acid mono-[(R)-2-(5-dimethylamino-naphthalene-1-sulfonylamino)-3-(3-fluoro-phenyl)-propyl]ester]
< 1000 nM	O=C(N[C@H](Cc1cccc(F)c1)CP(=O)(O)O)c1cc2ccccc2s1 [Example 98, [2-[(Benzo[b]thiophene-2-carbonyl)-amino]-3-(3-fluoro-phenyl)-propyl]-phosphonic acid]
< 1000 nM	O=C(N[C@@H](COP(=O)(O)O)Cc1cccc(F)c1)c1ccc2nc[nH]c2c1 [Example 61, Phosphoric acid mono-[(R)-2-[(1-3H-benzoimidazol-5-yl-methanoyl)-amino]-3-(3-fluoro-phenyl)-propyl]ester]
< 1000 nM	CCN(CC)c1ccc2cc(C(=O)N[C@@H](COP(=O)(O)O)Cc3cccc(F)c3)c(=O)oc2c1 [Example 25-33, Phosphoric acid mono-[(R)-2-{[1-(diethylamino-oxo-2H-chromen-3-yl)-methanoyl]-amino}-3-(3-fluoro-phenyl)-propyl]ester]
< 10000 nM	CC(C)C(=O)N[C@@H](COP(=O)(O)O)Cc1ccccc1 [Example 25-15]

Target: T2, PIN1-CD (catalytic PIN1 domain, devoid of the PIN1 WW domain) (Homo sapiens, UniProt Q13526)
T2 construct: PIN1 peptide containing the catalytic peptidyl-prolyl isomerase domain but devoid of the PIN1 WW domain
T2 sequence (Q13526 52-163 limits assumed): as above
Test: Dissociation constant (Kd) with PIN1 catalytic domain
Format: binding
Settings: peptide containing the catalytic PIN1 domain
Source text: as §1

Compound	Kd
O=C(N[C@@H](COP(=O)(O)O)Cc1ccccc1)c1ccccc1O [Example 25-13, Phosphoric acid mono-(2-{[1-(2-hydroxy-phenyl)-methanoyl]-amino}-3-phenyl-propyl)ester]	< 10000 nM
O=C(N[C@@H](COP(=O)(O)O)Cc1ccccc1)c1cc2ccccc2cc1O [Example 25-22, Phosphoric acid mono-(2-{[1-(3-hydroxy-naphthalen-2-yl)-methanoyl]-amino}-3-phenyl-propyl)ester]	< 1000 nM
O=C(N[C@@H](COP(=O)(O)O)Cc1ccccc1)c1ccc2ccccc2c1O [Example 25-21]	< 1000 nM
COc1cc(C)cc(NC(=O)N[C@@H](COP(=O)(O)O)Cc2ccccc2)c1 [Example 23c, Phosphoric acid mono-{2-[3-(3-methoxy-5-methyl-phenyl)-ureido]-3-phenyl-propyl}ester]	< 1000 nM
NS(=O)(=O)OC[C@@H](Cc1ccccc1)NC(=O)c1ccc2ccccc2c1 [Example 72, Sulfamic acid 2-[(1-naphthalen-2-yl-methanoyl)-amino]-3-phenyl-propyl ester]	< 100000 nM
COc1cc(NC(=O)N[C@@H](COP(=O)(O)O)Cc2ccccc2)cc(OC)c1 [Example 23d, Phosphoric acid mono-{2-[3-(3,5dimethoxy-phenyl)-ureido]-3-phenyl-propyl}ester]	< 1000 nM
COc1c(C(=O)N[C@@H](COP(=O)(O)O)Cc2ccccc2)csc1Cl [Example 25-6, Phosphoric acid mono-(2{[1-(5-chloro-4-methoxy-thiophen-3-yl)-methanoyl]-amino}-3-phenyl-propyl)ester]	< 1000 nM
O=C(N[C@@H](COP(=O)(O)O)Cc1ccccc1)c1ccc(Cl)c(Cl)c1 [Example 25-5, Phosphoric acid mono-(2-{[1-(3,4-dichloro-phenyl)-methanoyl]amino}-3-phenyl-propyl)ester]	< 1000 nM
O=C(N[C@@H](COP(=O)(O)O)Cc1ccccc1)c1cc2ccccc2[s+]1[O-] (stereo in doubt) [25-2′, Phosphoric acid mono-(2-{[1-(1-oxo-benzo[b]thiophen-2-yl)-methanoyl]-amino}-3-phenyl-propyl)ester]	< 1000 nM
O=C(N[C@@H](COP(=O)(O)O)Cc1ccccc1)c1ccc(Oc2cc(Cl)cc(Cl)c2)o1 [Example 25-4, Phosphoric acid mono-[2-({1-[5-(3,5-dichloro-phenoxy)-furan-2-yl]-methanoyl}-amino)-3-phenyl-propyl]ester]	< 1000 nM
O=C(N[C@@H](COP(=O)(O)O)Cc1ccccc1)c1cnc2ccccc2n1 [Example 25-11, Phosphoric acid mono-{3-phenyl-2-[(1-quinoxalin-2-yl-methanoyl)-amino]-propyl}ester]	< 1000 nM

Next, values leading:

Kd	Compound
< 1000 nM	O=C(N[C@@H](COP(=O)(O)O)Cc1ccccc1)c1ccc2ccccc2c1Br [Example 25-24, Phosphoric acid mono-(2-{[1-(1-bromo-naphthalen-2-yl)-methanoyl]amino}-3-phenyl-propyl)ester]
< 1000 nM	COc1ccc2cc(C(=O)N[C@@H](COP(=O)(O)O)Cc3ccccc3)ccc2c1 [Example 25-25, Phosphoric acid mono-(2-{[1-(6-methoxy-naphthalen-2-yl)-methanoyl]-amino}-3-phenyl-propyl)ester]
< 1000 nM	O=C(N[C@@H](COP(=O)(O)O)Cc1ccccc1)c1cccc2ccccc12 [Example 25-10, Phosphoric acid mono-{2-[(1-naphthalen-1-yl-methanoyl)-amino]-3-phenyl-propyl}ester]
< 1000 nM	O=C(N[C@@H](COP(=O)(O)O)Cc1ccccc1)c1cc2ccccc2o1 [Example 25-19, Phosphoric acid mono-{2-[(1-benzofuran-2-yl-methanoyl)-amino]-3-phenyl-propyl}ester]
< 1000 nM	Cc1nn(-c2ccccc2)nc1C(=O)N[C@@H](COP(=O)(O)O)Cc1ccccc1 [Example 25-7, Phosphoric acid mono-(2-{[1-(5-methyl-2-phenyl-2H-[1,2,3]triazol-4-yl)-methanoyl]-amino}-3-phenyl-propyl)ester]
< 1000 nM	O=C(N[C@@H](COP(=O)(O)O)Cc1ccccc1)c1cc2ccccc2[nH]1 [Example 25-18, Phosphoric acid mono-{2-[(1-1H-indol-2-yl-methanoyl)-amino]-3-phenyl-propyl}ester]
< 1000 nM	O=C(N[C@@H](COP(=O)(O)O)Cc1ccccc1)c1ccc2cc(O)ccc2c1 [Example 25-20, Phosphoric acid mono-(2-{[1-(6-hydroxy-naphthalen-2-yl)-methanoyl]-amino}-3-phenyl-propyl)ester]
< 1000 nM	O=C(Nc1ccccc1Oc1ccccc1)N[C@@H](COP(=O)(O)O)Cc1ccccc1 [Example 23b, Phosphoric acid mono-{2-[3-(2-phenoxy-phenyl)-ureido]-3-phenyl-propyl}ester]
< 1000 nM	O=C(N[C@@H](COP(=O)(O)O)Cc1ccccc1)c1sccc1Cl [Example 25-12]
< 10000 nM	O=C(N[C@@H](COP(=O)(O)O)Cc1ccccc1)c1ccco1 [Example 25-14, Phosphoric acid mono-{2-[(1-furan-2-yl-methanoyl)-amino]-3-phenyl-propyl}ester]
< 10000 nM	CN(C(=O)c1ccc2ccccc2c1)C(COP(=O)(O)O)Cc1ccccc1 (stereo not shown) [Example 58, Phosphoric acid mono-{[methyl-(1-naphthalen-2-yl-methanoyl)-amino]-phenyl-propyl}ester]
